According to a compilation of properties of binary mixtures (doi:10.1007/s10953-013-9991-z):

Experiment: xn = mol fraction of the nth substance listed
Conditions: 101 kPa

CC[n+]1ccn(C)c1.F[B-](F)(F)F + CN(C)C=O
speed of sound [m/s]
Conditions	293.15 K	298.15 K	303.15 K	308.15 K
x2 = 0	1631	1619.4	1607.6	–
x2 = 0.0903	1625.1	1611.5	1598	1586
x2 = 0.1257	–	1609.6	1596	1583.1
x2 = 0.1717	1622.4	–	1594	–
x2 = 0.2275	1621.4	1606.7	1591.9	1577.6
x2 = 0.2781	1620.2	–	1590.4	1574.8
x2 = 0.3276	1618.1	1603.9	1589.2	1572.2
x2 = 0.3781	1615.6	1601	1586.1	1569.6
x2 = 0.4227	1612.9	1598.5	1583.6	1565.4
x2 = 0.4757	1607.8	–	1577.9	1560.5
x2 = 0.5258	–	1586.4	1571.3	1553.1
x2 = 0.5697	1593.8	1579.9	–	–
x2 = 0.6261	1582.9	1568.1	1552.6	1534.5
x2 = 0.6758	–	–	1541.3	1523.2
x2 = 0.7291	1558.1	–	1526.5	1508.1
x2 = 0.769	1546.4	–	1513.9	1496.7
x2 = 0.8268	1529.4	1512.2	1495.4	1478
x2 = 0.8789	–	1495.6	1478.4	1460.1

CN(C)C=O + CC[n+]1ccn(C)c1.F[B-](F)(F)F
x1 = 1
Conditions	speed of sound [m/s]
293.15 K	1477.8
303.15 K	1440.3
308.15 K	1421

CNC=O + CC[n+]1ccn(C)c1.F[B-](F)(F)F
speed of sound [m/s]
Conditions	293.15 K	298.15 K	303.15 K	308.15 K
x1 = 0.0661	1633.3	–	–	–
x1 = 0.0886	1633.3	1622.4	1611.3	1600.3
x1 = 0.1287	1633	1622.1	1610.8	–
x1 = 0.1757	1631.7	1619.5	1607.8	1596.1
x1 = 0.2258	1628	1615.8	1603.3	1590.7
x1 = 0.2783	1622.6	1609	1595.9	1583.5
x1 = 0.3287	–	1601.7	–	–
x1 = 0.3729	1608.1	1593	–	–
x1 = 0.4259	1597.9	1582.3	1567.3	1552.1
x1 = 0.4766	1585.5	1569.5	1554.2	1539.1
x1 = 0.5291	1572.2	–	1540.2	1524.6
x1 = 0.5749	1559.2	1543.2	–	1511.9
x1 = 0.6252	1543.5	1527.8	1513	1496.9
x1 = 0.6773	–	1511.9	1496.9	1480.7
x1 = 0.7281	1511.5	–	1482	–
x1 = 0.7744	1496.7	–	1467.9	1452.1
x1 = 0.8271	1481.1	–	1453	1437
x1 = 0.8782	1467.7	1453.9	–	–
x1 = 1	–	1431.9	1417.7	–

CC[n+]1ccn(C)c1.F[B-](F)(F)F + CNC=O
x2 = 0
Conditions	speed of sound [m/s]
293.15 K	1631
298.15 K	1619.4
303.15 K	1607.6
308.15 K	1596.3
